Test results published in US5622839A (ZymoGenetics, Inc., priority 1995, dated 1997).
Blank lines part the entries; values can stand above or below the compound they belong to.

Tests used:
[1] = molecular target: T1, human calcitonin receptor (Homo sapiens, UniProt P30988); assay: [Ca2+]i response of BHK cells expressing cloned calcitonin receptor to calcitonin and extracellular calcium (fura-2); format: cell-based; details: for average peak [Ca2+]i response vs receptor number: each cell line expressing the calcitonin receptor
T1 construct: Hollex encoded a protein of 474 amino acids; expressed in transfected cells; host or cells: BHK 570 / BHK/KZ10-20-48 (baby hamster kidney) stably transfected with pHollex
T1 sequence (P30988 25-474): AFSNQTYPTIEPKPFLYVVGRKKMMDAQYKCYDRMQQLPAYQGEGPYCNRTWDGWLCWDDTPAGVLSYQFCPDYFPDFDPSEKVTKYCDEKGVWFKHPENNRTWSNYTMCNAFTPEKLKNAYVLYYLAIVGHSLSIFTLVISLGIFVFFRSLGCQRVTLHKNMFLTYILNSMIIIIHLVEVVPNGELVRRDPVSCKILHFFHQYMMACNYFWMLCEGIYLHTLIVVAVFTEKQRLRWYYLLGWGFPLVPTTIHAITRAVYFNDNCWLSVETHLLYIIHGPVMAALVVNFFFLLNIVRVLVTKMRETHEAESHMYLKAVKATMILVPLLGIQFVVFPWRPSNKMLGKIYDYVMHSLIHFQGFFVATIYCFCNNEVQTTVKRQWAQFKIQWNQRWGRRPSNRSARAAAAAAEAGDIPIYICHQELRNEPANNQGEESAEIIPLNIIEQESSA
Experimental: (§1) BHK cells expressing the cloned calcitonin receptor were assayed to determine their response to extracellular calcium. Cells were washed three times with a buffer (140 mM NaCl, 5 mM KCl, 0.5 mM MgCl2, 0.5 mM CaCl2 (concentration varied in some experiments), 10 mM glucose, 10 mM HEPES, pH 7.4) made using high purity salts (Aldrich, Milwaukee, Wis.) and sterile water (Baxter, McGaw Park, Ill.). Cells were loaded with fura-2 AM (Molecular Probes Inc.) (10 μg/ml) for 30 minutes essentially as described above, then washed an additional three times. Slides were mounted at room temperature on an inverted microscope (EPIPHOT, Nikon), and a field of cells (typically 20-30 cells) was located using a 40× Nikon fluor objective. The ratio of fura-2 emission at excitation wavelengths of 340 and 380 nm was recorded every 5 seconds. Individual cells were analyzed on a computer workstation (Sun Microsystems) using a software system designed for ratio imaging (Inovision). The concentration of calcium chloride in buffers was determined by comparison to calcium standards on a calcium analyzer (Nova Biomedical Corp. Waltham, Mass.). All experiments were reproduced three to eight times. Fura-2 ratio 340 nm to 380 nm values (R) were converted to [Ca^2+ ]i concentrations after calibration of the instrument using the formula: calcium (nm)=2240[R-0.3)/(20-R)]. Basal [Ca^2+ ]i concentrations were typically 80-150 nm. The peak fura-2 ratios 340/380 of individual cells exposed to 20 nm salmon calcitonin followed by 25 mM calcium chloride were averaged for some experiments and converted to [Ca^2+ ]i concentrations. Standard error was calculated at a 99% level using a Z score of 2.58 (n>30).

BHK/Zem228R = assay: Binding/competition assay with BHK/Zem228R cells (negative control); set-up: species or system baby hamster
Experimental: A pool of transfectants expressing the plaex 1 was tested for receptor-mediated binding to calcitonin using a competition assay. Hollex1 was used as a positive control and BHK cells transfected with Zem228R were used as a negative control.
The cells were plated at a density of 1×10^5 cells/well in a 24-well cell culture dish and allowed to grow for 48 hours at 37° C. and 5% CO2 in growth medium (described in previous examples). The cells were rinsed in binding medium as described in Example IIE. Three hundred microliters of hot binding medium containing 10 nM hCT and 5 μCi/ml ^125 I hCT. Cold competition was achieved by adding unlabelled hCT to a final concentration of 1 μM were added to appropriate wells. The cells were incubated 1.5 hours at room temperature. Unincorporated radioactivity was removed by three washes with PBS. Five hundred microliters of 1N NaOH was added to each well to solublize the cells. Each sample was counted on a gamma counter.

Control BHK cell lines = assay: [Ca2+]i response of control (calcitonin receptor-negative) BHK cells to extracellular calcium; format: cell-based, baby hamster
Experimental: as §1, with “Fura-2 ratio 340 nm to 380 nm values (R) were converted to [Ca^2+ ]i concentrations after calibration of the instrument using the formula: calcium (nm)=2240[R-0.3)/(20-R)]. Basal [Ca^2+ ]i concentrations were typically 80-150 nm. The peak fura-2 ratios 340/380 of individual cells exposed to 20 nm salmon calcitonin followed by 25 mM calcium chloride were averaged for some experiments and converted to [Ca^2+ ]i concentrations.” left out

[2] = molecular target: T1, human calcitonin receptor; assay: Intracellular calcium response of Hollex1/Hollex2 cells (fura-2 imaging); format: cell-based
bone resorption = details: patients given long term treatment; Azria 1989; cited from earlier work
[3] = 25 mM extracellular calcium chloride, about 700,000 receptors/cell
[4] = cell lines expressing 100,000 and 150,000 receptors/cell

[Ca2+]i response to 73 mM KCl ([1]; instead of CaCl2, about 700,000 receptors/cell): no effect
Compound: [Cl-].[K+] [KCl]

Compound: human calcitonin: human calcitonin (hCT), natural peptide hormone ligand of the calcitonin receptor
hot (BHK/Zem228R; 10 nM hCT and 5 μCi/ml 125I hCT): 147 cpm | hot/cold (BHK/Zem228R; plus unlabelled hCT 1 μM): 105 cpm

Compound: [Ca+2].[Cl-].[Cl-] [calcium chloride]
magnitude of [Ca2+]i response relative to that induced by calcitonin [1, 3]: comparable to that induced by calcitonin | time for response to return to an elevated basal level [1, 3]: about 20 minutes | effect of calcitonin pretreatment on magnitude of response to extracellular calcium ([1]; 25 mM, about 700,000 receptors/cell, p<0.01): not significantly altered | concentration of maximum response ([1]; 700,000 receptors/cell): approximately 14 mM | EC50 ([1]; 700,000 receptors/cell, double reciprocal plot, read-out: effective concentration for half-maximal response): 8 to 10 mM | smallest increase in extracellular calcium giving a significant response ([1]; 700,000 receptors/cell, increase over basal (1.3 mM)): 2 mM | [Ca2+]i response to millimolar increases in extracellular calcium ([1]; BHK cells expressing recombinant calcitonin receptor): rapid and sustained elevation in [Ca^2+ ]i | [Ca2+]i response to 25 mM extracellular calcium for two minutes followed by continuous wash ([1]; about 700,000 receptors/cell): rapid and transient increase in [Ca^2+ ]i | [Ca2+]i response to 25 mM extracellular calcium chloride ([1]; about 700,000 receptors/cell, with or without calcitonin pretreatment): rapid and sustained increase in [Ca2+ ]i | [Ca2+]i response [1, 4]: increases in [Ca^2+ ]i | average peak [Ca2+]i response vs receptor number [1]: proportional to the average number of receptors per cell | response to extracellular calcium (Control BHK cell lines; Control BHK cell lines): no response | sensitivity to changes in extracellular calcium (Control BHK cell lines; three calcitonin receptor-negative BHK cell lines): no sensitivity

cells with a calcium response ([2]; Hollex1 cells): 30-70% | cells with a calcium response ([2]; Hollex2 cells): 1-5% | [Ca2+]i response [1, 4]: increases in [Ca^2+ ]i | effect of calcitonin pretreatment on response to extracellular calcium [1, 4]: marked potentiation
Compound: calcitonin
average peak [Ca2+]i response vs receptor number [1]: proportional to the average number of receptors per cell | resistance cases not accompanied with antibody formation (bone resorption): approximately 50%
